# Assay: Compatibility test of the active ingredient with pharmaceutical additives (storage, HPLC)
# Assay type: physicochemical
# Conditions: 60° C., relative humidity 75%, one week
# Procedure: Specifically, 4-amino-5-chloro-N-[(1R,3r,5S)-8-methyl-8-azabicyclo[3.2.1]oct-3-yl]-2-[(1S)-1-methylbut-2-ynyloxy]benzamide was admixed with various pharmaceutical additives in weight proportions in Table 2, the resulting compositions were weighed in transparent glass bottles, and were stored at 60° C., relative humidity of 75% for one week while keeping the lid open. Various fillers, disintegrators, binders, lubricants, and others were used as the pharmaceutical additives. As a control, 4-amino-5-chloro-N-[(1R,3r,5S)-8-methyl-8-azabicyclo[3.2.1]oct-3-yl]-2-[(1S)-1-methylbut-2-ynyloxy]benzamide alone was weighed in a transparent glass bottle and was stored under the above-mentioned conditions. The samples before and after storage were evaluated using high-performance liquid chromatography (HPLC). The stabilities of the samples were evaluated based on the total amount of decomposition products (%), the amount (%) of main decomposition product at a retention time (RRT) of 1.37, and the residual ratio of content (%) of the active ingredient after storage. […] Total amount of decomposition products (%)=Total sum of the amounts of individual decomposition products Residual ratio of content (%)=[(Content after storage)/(Content before storage)]×100 (HPLC condition)
# The respective samples before and after storage were mixed with an extraction medium, stirred for sixty minutes, and centrifuged at 3000 rpm for fifteen minutes. The resulting supernatants were assayed by liquid chromatography to thereby determine the amounts of decomposition products and the content of the active ingredient. • Extraction medium: 30% by volume aqueous solution of acetonitrile • Detector: Ultraviolet absorptiometer • Mobile phase A: Mixture of water/acetonitrile/(sodium perchlorate monohydrate)/(perchloric acid) (900:100:7:1, V/V/W/V) • Mobile phase B: Mixture of acetonitrile/water/(sodium perchlorate monohydrate)/(perchloric acid) (900:100:7:1, V/V/W/V) • Column: Stainless steel tube having an inner diameter of 4.6 mm and a length of 15 cm, charged with 3-μm octadecylsilylated silica gel for liquid chromatography • Column temperature: Constant temperature around 40° C.
smiles,measurement,setting,value
"CC#C[C@H](C)Oc1cc(N)c(Cl)cc1C(=O)NC1CC2CCC(C1)N2C (stereo partly drawn) [the active ingredient, 4-amino-5-chloro-N-[(1R,3r,5S)-8-methyl-8-azabicyclo[3.2.1]oct-3-yl]-2-[(1S)-1-methylbut-2-ynyloxy]benzamide]","Decomposition on storage, in words",compared within additive class or with control,no decomposition product
same,Amount of main decomposition product at RRT = 1.37 (%),"active ingredient admixed with additive (additive rate 100, 50 or 15 to the active ingredient), lid open, HPLC external standard method",0.00%
same,Residual ratio of content (%),"active ingredient admixed with additive, lid open, content after/before storage x100",99.6%
same,Total amount of decomposition products (%),"active ingredient admixed with additive, lid open, sum of individual decomposition products",0.00%
